Results as given in PMC5428354, “Screening of a natural compound library identifies emodin, a natural compound from Rheum palmatum Linn that inhibits DPP4” (PeerJ, 2017).
Like-named read-outs stand apart in the source and are kept apart here.

Molecular target: DPP4 (Homo sapiens, UniProt P27487)
Experiment: DPP4 activity assay (DPP4 inhibitor screening assay kit, Cayman);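 further: fluorescence read at excitation 360 nm and emission 460 nm after the enzyme reaction ran 30 min at 37 °C in a 96-well plate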
Type: biochemical
Design: purchased Cayman Chemical, Ann Arbor, MI, USA
Settings: for remaining activity at 10 µM: 0.5 h
[1] = 10 µM, control mean 100.0, Figure 1A raw data
[2] = 10 µM, control mean 100.0, mean of Exp 1-3
[3] = 10 µM, control mean 100.0, Figure 1A raw data, read-out: DPP4 activity in library screen, Exp 1
[4] = 10 µM, control mean 100.0, Figure 1A raw data, read-out: DPP4 activity in library screen, Exp 2
[5] = 10 µM, control mean 100.0, Figure 1A raw data, read-out: DPP4 activity in library screen, Exp 3
[6] = 10 µM, control mean 100.0, mean of Exp 1-3, read-out: DPP4 activity in library screen, Mean

Chain of DPP4 (P27487 whole entry): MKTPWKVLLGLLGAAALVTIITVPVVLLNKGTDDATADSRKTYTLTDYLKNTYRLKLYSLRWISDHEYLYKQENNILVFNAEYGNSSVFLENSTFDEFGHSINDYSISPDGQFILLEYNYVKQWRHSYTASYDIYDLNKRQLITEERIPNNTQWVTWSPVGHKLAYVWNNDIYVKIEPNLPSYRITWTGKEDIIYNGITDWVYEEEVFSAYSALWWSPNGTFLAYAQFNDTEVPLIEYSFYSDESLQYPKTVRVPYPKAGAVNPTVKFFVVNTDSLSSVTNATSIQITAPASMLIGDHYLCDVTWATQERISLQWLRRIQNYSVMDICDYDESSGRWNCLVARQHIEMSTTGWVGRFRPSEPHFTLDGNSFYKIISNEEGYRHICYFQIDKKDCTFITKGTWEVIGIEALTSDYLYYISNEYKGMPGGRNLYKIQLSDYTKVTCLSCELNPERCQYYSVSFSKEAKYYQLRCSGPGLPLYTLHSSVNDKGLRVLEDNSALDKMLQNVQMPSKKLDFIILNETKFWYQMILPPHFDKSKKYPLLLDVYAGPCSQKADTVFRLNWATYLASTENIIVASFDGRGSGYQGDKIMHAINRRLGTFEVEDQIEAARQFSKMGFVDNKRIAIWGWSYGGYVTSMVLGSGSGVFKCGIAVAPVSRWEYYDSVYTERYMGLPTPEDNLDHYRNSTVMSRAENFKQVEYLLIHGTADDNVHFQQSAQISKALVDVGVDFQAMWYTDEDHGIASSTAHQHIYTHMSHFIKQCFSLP

remaining activity at 10 µM [3] | remaining activity at 10 µM [4] | remaining activity at 10 µM [5] | remaining activity at 10 µM [6] | Structure (SMILES) | DPP4 activity in library screen, Exp 1 [1] | DPP4 activity in library screen, Exp 2 [1] | DPP4 activity in library screen, Exp 3 [1] | DPP4 activity in library screen, Mean [2] | further results
82.6% | 90.9% | 116% | 96.6% | COc1cc(C(C)=O)ccc1O [Apocynin] |  |  |  |  | 
95.9% | 96.2% | 96.1% | 96.1% | OC[C@H]1O[C@@H](Oc2ccc(O)cc2)[C@H](O)[C@@H](O)[C@@H]1O [Arbutin] |  |  |  |  | 
95.1% | 99% | 87% | 93.7% | C[C@H]1[C@H](OC(=O)CCC(=O)O)O[C@@H]2O[C@@]3(C)CC[C@H]4[C@H](C)CC[C@@H]1[C@@]24OO3 [Artesunate] |  |  |  |  | 
83.3% | 65.3% | 130% | 93% | C[C@H]1[C@H](C)CC[C@]2(C(=O)O)CC[C@]3(C)C(=CC[C@@H]4[C@@]5(C)C[C@@H](O)[C@H](O)[C@@](C)(CO)[C@@H]5CC[C@]43C)[C@H]12 [Asiatic Acid] |  |  |  |  | 
71.4% | 51.3% | 111% | 77.9% | O=C(O)[C@H]1O[C@@H](Oc2cc3oc(-c4ccccc4)cc(=O)c3c(O)c2O)[C@H](O)[C@@H](O)[C@@H]1O [Baicalin] |  |  |  |  | 
114% | 102% | 73.5% | 96.3% | COc1c(O)cc2c(c1O)[C@@H]1O[C@H](CO)[C@@H](O)[C@H](O)[C@H]1OC2=O [Bergenin] |  |  |  |  | 
97.5% | 98.7% | 78.2% | 91.5% | CCCC[N+]1(C)[C@@H]2C[C@@H](OC(=O)[C@H](CO)c3ccccc3)C[C@H]1[C@@H]1O[C@@H]12 (some centres unmarked) [Butylscopolamine bromide] |  |  |  |  | 
71.3% | 81.8% | 102% | 84.9% | O=C(/C=C/c1ccc(O)c(O)c1)O[C@@H]1C[C@](O)(C(=O)O)C[C@@H](O)[C@H]1O [Chlorogenic Acid] |  |  |  |  | 
85.4% | 87.6% | 71.2% | 81.4% | O=c1cc(-c2ccccc2)oc2cc(O)cc(O)c12 [Chrysin] |  |  |  |  | 

More lines, now with the values behind:

Structure (SMILES) | remaining activity at 10 µM [3] | remaining activity at 10 µM [4] | remaining activity at 10 µM [5] | remaining activity at 10 µM [6] | DPP4 activity in library screen, Exp 1 [1] | DPP4 activity in library screen, Exp 2 [1] | DPP4 activity in library screen, Exp 3 [1] | DPP4 activity in library screen, Mean [2] | further results
C[N+](C)(C)CC(O)CC(=O)O.[Cl-] (racemic) [DL-Carnitine HCl] |  |  |  |  | 97.3 | 93.1 | 99.1 | 96.5 | 
CC(=O)c1c(O)c(C)c(O)c2c1OC1=CC(=O)C(C(C)=O)C(=O)C12C (single isomer, unassigned; (+)) [(+)-Usniacin] |  |  |  |  | 88.7 | 90.4 | 89.7 | 89.6 | 
O=C(O)CCCc1c[nH]c2ccccc12 [3-Indolebutyric acid (IBA), 3-Indolebutyric acid] | 92% | 93.9% | 107% | 97.5% |  |  |  |  | 
Cc1cc(=O)oc2cc(O)ccc12 [4-Methylumbelliferone (4-MU), 4-Methylumbelliferone] |  |  |  |  |  |  |  | auto-fluorescence | 
N[C@@H](Cc1c[nH]c2ccc(O)cc12)C(=O)O [5-hydroxytryptophan (5-HTP), 5-hydroxytryptophan] | 93.3% | 82.6% | 90.6% | 88.8% |  |  |  |  | 
O=C1CCC[C@@H]2[C@H]3CCCN4CCC[C@@H](CN12)[C@@H]34 [(+)-Matrine] |  |  |  |  | 101.6 | 98 | 94.4 | 98.0 | 
O=C(O[C@@H]1Cc2c(O)cc(O)cc2O[C@@H]1c1cc(O)c(O)c(O)c1)c1cc(O)c(O)c(O)c1 [(-)-Epigallocatechin Gallate] | 100% | 90.2% | 81.9% | 90.8% |  |  |  |  | 
C=C1C(=O)O[C@H]2[C@H]1CC/C(C)=C/CC[C@@]1(C)O[C@@H]21 [(-)-Parthenolide] |  |  |  |  | 73.3 | 84.6 | 113.2 | 90.4 | 
CC[C@@]1(O)C(=O)OCc2c1cc1n(c2=O)Cc2cc3cc(O)ccc3nc2-1 [(S)-10-Hydroxycamptothecin] | 87.4% | 77.6% | 85.7% | 83.6% |  |  |  |  | 
O=C1c2c(O)cccc2C([C@@H]2O[C@H](CO)[C@@H](O)[C@H](O)[C@H]2O)c2cc(CO)cc(O)c21 (some centres unmarked) [Aloin] | 91.5% | 70.4% | 71.7% | 77.9% |  |  |  |  | 
CC1(C)[C@@H](O[C@H]2O[C@H](C(=O)O)[C@@H](O)[C@H](O)[C@H]2O[C@@H]2O[C@H](C(=O)O)[C@@H](O)[C@H](O)[C@H]2O)CC[C@]2(C)[C@H]3C(=O)C=C4[C@@H]5C[C@@](C)(C(=O)O)CC[C@]5(C)CC[C@@]4(C)[C@]3(C)CC[C@@H]12 [Ammonium Glycyrrhizinate] |  |  |  |  | 83.3 | 106.3 | 81.6 | 90.4 | 
N#C[C@H](O[C@@H]1O[C@H](CO[C@@H]2O[C@H](CO)[C@@H](O)[C@H](O)[C@H]2O)[C@@H](O)[C@H](O)[C@H]1O)c1ccccc1 [Amygdalin] | 96.2% | 94.7% | 92.1% | 94.3% |  |  |  |  | 
C=C1CC[C@@H]2[C@](C)(CO)[C@H](O)CC[C@@]2(C)[C@@H]1C/C=C1/C(=O)OC[C@H]1O [Andrographolide] | 103% | 100% | 96.8% | 100% |  |  |  |  | 
O=c1cc(-c2ccc(O)cc2)oc2cc(O)cc(O)c12 [Apigenin] | 97.4% | 70.3% | 67.8% | 78.5% |  |  |  |  | 
CC(C)(O)[C@H]1CC[C@@](C)([C@H]2[C@@H](O)C[C@@]3(C)[C@@H]4C[C@H](O[C@@H]5O[C@H](CO)[C@@H](O)[C@H](O)[C@H]5O)[C@H]5C(C)(C)[C@@H](O[C@@H]6OC[C@@H](O)[C@H](O)[C@H]6O)CC[C@@]56C[C@@]46CC[C@]23C)O1 [Astragaloside A] |  |  |  |  | 103.8 | 108.8 | 101.9 | 104.8 | 
O=[N+]([O-])c1ncc[nH]1 [Azomycin] | 74.2% | 78.5% | 76.2% | 76.3% |  |  |  |  | 
COc1ccc2cc3[n+](cc2c1OC)CCc1cc2c(cc1-3)OCO2.[Cl-] [Berberine HCl] |  |  |  |  | 52.4 | 58.4 | 54.2 | 55.0 | 
CC(C)(C)[C@]1(O)CC2OC(=O)CC23C(=O)OC2OC(=O)[C@H](O)C231 (some centres unmarked) [Bilobalide] |  |  |  |  |  |  |  |  | remaining activity at 10 µM (read-out: DPP4 activity in library screen, Exp 1): 97.2%; remaining activity at 10 µM (read-out: DPP4 activity in library screen, Exp 2): 94.5%; remaining activity at 10 µM (read-out: DPP4 activity in library screen, Exp 3): 103%; remaining activity at 10 µM (read-out: DPP4 activity in library screen, Mean): 98.2%
COc1ccc(-c2coc3cc(O)cc(O)c3c2=O)cc1 [Biochanin A] |  |  |  |  | 94.6 | 100.9 | 85.2 | 93.6 | 
CCCCCCCCCCCCCCCC(=O)OC[C@@]1(O)C[C@@]23CC[C@@H]4c5ccoc5CC[C@@]4(C)[C@@H]2CC[C@@H]1C3 [Cafestol palmitate] |  |  |  |  | 96.3 | 108.3 | 144 | 116.2 | 
CN1CC[C@]23c4ccccc4N[C@H]1[C@]21CCN(C)[C@H]3Nc2ccccc21 [Calycanthine] |  |  |  |  | 98.1 | 98.8 | 109.2 | 102.0 | 
CCC1=C[C@@H]2CN3CCc4c([nH]c5ccccc45)[C@@](C(=O)OC)(C2)[C@@H]13 [Catharanthine] |  |  |  |  | 117.2 | 93.7 | 139.2 | 116.7 | 
C=C[C@H]1CN2CC[C@H]1C[C@H]2[C@H](O)c1ccnc2ccccc12 [Cinchonidine] | 90.5% | 97.4% | 97.3% | 95.1% |  |  |  |  | 
C[C@H]1COC2=C1C(=O)C(=O)c1c2ccc2c1CCCC2(C)C [Cryptotanshinone] | 60.3% | 66.5% | 58.2% | 61.7% |  |  |  |  | 
C=C1C[C@@]2(O)O[C@@]3(C[C@H]2C(C)C)[C@@H](C)CC[C@@H]13 [Curcumol] |  |  |  |  | 100.6 | 99.6 | 110.6 | 103.6 | 
Cl.N=c1ccn2c(n1)O[C@H]1[C@H](O)[C@@H](CO)O[C@H]12 [Cyclocytidine HCl] |  |  |  |  | 110.3 | 95 | 97.8 | 101.0 | 
